This is an account of results in patent US20250228958A1, “TSP1 INHIBITOR” (Daiichi Sankyo Company, Limited, priority 2022, published 2025).

The test system of data set [1] is C57BL/6 mice, ischemic limb blood flow. Briefly: Blood flow improvement measurement tests (femoral artery/vein ligation and excision, laser Doppler). The format is in vivo, mouse. The note with it: for blood flow AUC, % of vehicle group mean: blood flow AUC from beginning to end of measurement, ratio to vehicle-treated group mean; for %, ischemia/nonischemia (blood flow on the last day of measurement): mean ± standard error, ratio of ischemic limb flow to non-ischemic limb flow. The source says: Six to seven-week-old C57BL/6 mice were purchased from Charles River Laboratories Japan Inc., and acclimated over six days by feeding with a FR-2 solid diet (produced by Funabashi Farm Co., Ltd.). The rearing facility switched between light and dark modes in a 12-hour cycle with light turning on at 7 a.m. and turning off at 7 p.m. Under isoflurane inhalation anaesthesia, the left thighs of the mice were dissected, and the superficial femoral arteries and veins (from just below the deep femoral arteries to the popliteal artery and vein) were ligated and excised. […] Five mice were used for each treatment group.
Blood flows were measured in ischemic (left) and non-ischemic (right) limbs using a laser Doppler perfusion imager (PeriScan PIM III, Moor LD12-HR). The improvement of blood flow was evaluated by the ratio of ischemic limb flow to non-ischemic limb flow. […] In addition, blood flow AUC was calculated to determine the ratio (%) of the mean value of the test substance-treated group to the mean value of the vehicle-treated group.

Data set [2] is described as follows: Serum stability test, mouse serum. The format is in vitro ADME. The note with it: for remaining at 4 h, 20 μM: male, BALB/c CrSlc, mouse, mouse serum, residual ratio: IS ratio at 4 hours relative to 0 hours, 37° C.; for serum stability (in words): statement covers mouse, monkey and human serum, 4 hours. The source says: (§1) • Mouse serum (BALB/c CrSlc, male, Japan SLC, Inc.) • Monkey serum (cynomolgus monkey, male, Japan SLC, Inc.) • Human serum (Caucasian, pool of 5 males and 5 females, KAC Co., Ltd.) • Phenacetin (Nacalai Tesque, Inc.) • Niflumic acid (Nacalai Tesque, Inc.) • Furosemide (Nacalai Tesque, Inc.) • Acetonitrile (FUJIFILM Wako Pure Chemical Corporation) • Methanol (FUJIFILM Wako Pure Chemical Corporation) • Formic acid (FUJIFILM Wako Pure Chemical Corporation) • Dimethyl sulfoxide (DMSO) (FUJIFILM Wako Pure Chemical Corporation)
(§2) Solutions of Phenacetin, niflumic acid, and furosemide were prepared in DMSO at 10 μg/ml, 150 μg/ml, and 200 μg/ml, respectively. 10 μg/ml of phenacetin in DMSO, 150 μg/ml of niflumic acid in DMSO, and 200 μg/ml of furosemide in DMSO were dissolved in a mixture of […]/methanol (75/25, v/v) (final concentrations: phenacetin; 1 ng/mL, niflumic acid: 15 ng/mL, and furosemide 20 ng/mL), and formic acid was added to the prepared test solution (final concentration: 1% (v/v)) to prepare a formic acid-containing IS solution.
(§3) The test substances were prepared in DMSO to a concentration of 10 mM each. Further, the solution was diluted with DMSO to a concentration of 2 mM to make a test substance solution.
(§4) Each serum was preincubated at 37° C. for 5 minutes, and then the test substance solution was added to a final concentration of 20 μM to initiate the reaction. The test substance-added serum was incubated at 37° C. At 0 and 4 hours after the start of the reaction, a portion of the serum was taken out and added to the formic acid-containing IS solution to stop the reaction, which was used as a measurement sample.
(§5) The test substance and IS (phenacetin, niflumic acid, and furosemide) in the measurement sample were measured by LC-MS/MS, and the peak area ratio (IS ratio) of the test substance to IS (any of phenacetin, niflumic acid, and furosemide) was calculated.
(§6) The percentage of the IS ratio at 4 hours after the start of the reaction relative to that at 0 hours after the start of the reaction was used as a residual ratio to evaluate serum stability.

A short description of data set [3]: Serum stability test, monkey serum. In kind it is in vitro ADME, cynomolgus monkey. Particulars: male, residual ratio: IS ratio at 4 hours relative to 0 hours, 37° C.
Excerpt: as §1, §2, §3, §4, §5, §6

Data set [4] can be described thus: Serum stability test, human serum. In kind it is in vitro ADME. The note with it: both sexes, residual ratio: IS ratio at 4 hours relative to 0 hours, 37° C.
Excerpt: as §1, §2, §3, §4, §5, §6

“Also recorded” adds a separate entry of the source. Starred links: 1 amine or outer side, 2 acyl side, 3 side chain; linkers in the order of their positions; H or OH if unused. Positions of bridges follow the written chain, without caps; N, C: chain ends. Non-standard residues stand in square brackets, D forms with d. Residues, ends and D or L forms follow the SMILES beside them. *: point of attachment. X1 = COCCOCCOCCOCCOCCOCCOCCOCCOCCOCCOCC(=O)N[C@@H](CCCCN*)C(=O)NCCOCCOCCOCCOCCOCCOCCOCCOCCOCCOCCOCCOCCC(=O)NCCOCCOCCOCCOCCOCCOCCOCCOCCOCCOCCOCCOCCC(=O)N[C@@H](CCCCNC(=O)CCN1C(=O)CC(C)C1=O)C(N)=O; 2Nal = N[C@@H](Cc1ccc2ccccc2c1)C(=O)O; Gly(cPent) = N[C@H](C(=O)O)C1CCCC1; Agb = N=C(N)NCC[C@H](N)C(=O)O; hCys = N[C@@H](CCS)C(=O)O; CH2 = C([*:1])[*:2]

`COCCOCCOCCOCCOCCOCCOCCOCCOCCOCCOCC(=O)N[C@@H](CCCCNC(=O)[C@H](CC(=O)O)NC(=O)[C@H](CC(=O)O)NC(=O)CNC(=O)CNC(=O)CNC(=O)CNC(=O)[C@@H]1CSCC(=O)N[C@@H](Cc2ccc3ccccc3c2)C(=O)N[C@H](CCCNC(=N)N)C(=O)N[C@H]2CCSSCC[C@H](NC(=O)[C@H](Cc3c[nH]c4ccccc34)NC(=O)[C@@H](CC(=O)O)NC(=O)[C@H](CCCNC(=N)N)NC(=O)CNC2=O)C(=O)N[C@H](CCCNC(=N)N)C(=O)N[C@@H](Cc2c[nH]c3ccccc23)C(=O)N[C@@H](C2CCCC2)C(=O)N1)C(=O)NCCOCCOCCOCCOCCOCCOCCOCCOCCOCCOCCOCCOCCC(=O)NCCOCCOCCOCCOCCOCCOCCOCCOCCOCCOCCOCCOCCC(=O)N[C@@H](CCCCNC(=O)CCN1C(=O)CC(C)C1=O)C(N)=O` (some centres unmarked) [Conjugate-4] ({CH2CO}-[2Nal][dR][hCys]GR[dD]W[hCys][dR]W[Gly(cPent)]CGGGGDD-X1; disulfide 3-8; thioether N-12): in data set [1] (0.3 mg/kg), the “blood flow AUC, % of vehicle group mean” value is 263.9% and the “%, ischemia/nonischemia (blood flow on the last day of measurement)” value is on record as 54.5 ± 10.2%. In addition, in data set [1] (1 mg/kg), the “blood flow AUC, % of vehicle group mean” value was 346.8% and the “%, ischemia/nonischemia (blood flow on the last day of measurement)” value amounted to 76.1 ± 11.2%.

As for `N=C(N)NCCC[C@@H]1NC(=O)[C@H](Cc2ccc3ccccc3c2)NC(=O)CSC[C@@H](C(N)=O)NC(=O)[C@H](C2CCCC2)NC(=O)[C@H](Cc2c[nH]c3ccccc23)NC(=O)[C@H](CCCNC(=N)N)NC(=O)[C@@H]2CCSSCC[C@H](NC1=O)C(=O)NCC(=O)N[C@@H](CCNC(=N)N)C(=O)N[C@@H](CC(=O)O)C(=O)N[C@@H](Cc1c[nH]c3ccccc13)C(=O)N2` [Peptide-9] ({CH2CO}-[2Nal]R[hCys]G[Agb]DW[hCys]RW[Gly(cPent)]C-NH2; disulfide 3-8; thioether N-12), the amount remaining at 4 h, 20 μM was found to be 95.8% in data set [2], 93% in data set [3] and 118% in data set [4]. For the same compound, the “serum stability (in words)” value in data set [2] is recorded as “high serum stability; also recorded: higher serum stability”.

In the case of `N=C(N)NCCC[C@@H]1NC(=O)CNC(=O)[C@@H]2CCSSCC[C@H](NC(=O)[C@H](Cc3c[nH]c4ccccc34)NC(=O)[C@H](CC(=O)O)NC1=O)C(=O)N[C@@H](CCCNC(=N)N)C(=O)N[C@@H](Cc1c[nH]c3ccccc13)C(=O)N[C@@H](C1CCCC1)C(=O)N[C@H](C(N)=O)CSCC(=O)N[C@@H](Cc1ccc3ccccc3c1)C(=O)N[C@@H](CCCNC(=N)N)C(=O)N2` [Peptide-11] ({CH2CO}-[2Nal]R[hCys]GRDW[hCys]RW[Gly(cPent)]C-NH2; disulfide 3-8; thioether N-12), the amount remaining at 4 h, 20 μM in data set [2] is 88%; in data set [3] it was 89.9%; in data set [4] it was 105%. Moreover, the “serum stability (in words)” value in data set [2] was “high serum stability”.

With `CC(C)[C@@H]1NC(=O)[C@H](Cc2c[nH]c3ccccc23)NC(=O)[C@H](CC(N)=O)NC(=O)[C@H](CCNC(=N)N)NC(=O)CNC(=O)[C@H](CO)NC(=O)[C@H](CCCNC(=N)N)NC(=O)[C@H](Cc2ccc3ccccc3c2)NC(=O)CSC[C@@H](C(N)=O)NC(=O)[C@H](C2CCCC2)NC(=O)[C@H](Cc2c[nH]c3ccccc23)NC(=O)[C@H](CCCNC(=N)N)NC1=O` [Peptide-115] ({CH2CO}-[2Nal]RSG[Agb]NWVRW[Gly(cPent)]C-NH2; thioether N-12), the share remaining at 4 h, 20 μM in data set [2] stood at 64.5%; in data set [3] it was 14.9%; in data set [4] it was 78.2%.

As for `CC(C)[C@@H]1NC(=O)[C@H](Cc2c[nH]c3ccccc23)NC(=O)[C@H](CC(=O)O)NC(=O)[C@H](CCNC(=N)N)NC(=O)CNC(=O)[C@H](CO)NC(=O)[C@H](CCCNC(=N)N)NC(=O)[C@H](Cc2ccc3ccccc3c2)NC(=O)CSC[C@@H](C(N)=O)NC(=O)[C@H](C2CCCC2)NC(=O)[C@H](Cc2c[nH]c3ccccc23)NC(=O)[C@H](CCCNC(=N)N)NC1=O` [Peptide-119], the values for the fraction remaining at 4 h, 20 μM in data set [2], in data set [3] and in data set [4] were 70.9%, 21.1% and 88.5%, respectively.

In the case of `N=C(N)NCCC[C@@H]1NC(=O)CNC(=O)[C@@H]2CSSCC[C@H](NC(=O)[C@H](Cc3c[nH]c4ccccc34)NC(=O)[C@H](CC(=O)O)NC1=O)C(=O)N[C@@H](CCCNC(=N)N)C(=O)N[C@@H](Cc1c[nH]c3ccccc13)C(=O)N[C@@H](C1CCCC1)C(=O)N[C@H](C(N)=O)CSCC(=O)N[C@@H](Cc1ccc3ccccc3c1)C(=O)N[C@@H](CCCNC(=N)N)C(=O)N2` [Peptide-126] ({CH2CO}-[2Nal]RCGRDW[hCys]RW[Gly(cPent)]C-NH2; disulfide 3-8; thioether N-12), the fraction remaining at 4 h, 20 μM in data set [2] worked out at 98.3%; in data set [3] it was 100%; in data set [4], 99.6%.

In the case of `N=C(N)NCCC[C@@H]1NC(=O)CNC(=O)[C@@H]2CCSCSCC[C@H](NC(=O)[C@H](Cc3c[nH]c4ccccc34)NC(=O)[C@H](CC(=O)O)NC1=O)C(=O)N[C@@H](CCCNC(=N)N)C(=O)N[C@@H](Cc1c[nH]c3ccccc13)C(=O)N[C@@H](C1CCCC1)C(=O)N[C@H](C(N)=O)CSCC(=O)N[C@@H](Cc1ccc3ccccc3c1)C(=O)N[C@@H](CCCNC(=N)N)C(=O)N2` [Peptide-127] ({CH2CO}-[2Nal]R[hCys]GRDW[hCys]RW[Gly(cPent)]C-NH2; linker 3-8 via CH2; thioether N-12), the amount remaining at 4 h, 20 μM in data set [2] is 90%; in data set [3] it was 95.1%; in data set [4], 97.5%.

`N=C(N)NCCC[C@@H]1NC(=O)CNC(=O)[C@@H]2CSSC[C@H](NC(=O)[C@H](Cc3c[nH]c4ccccc34)NC(=O)[C@H](CC(=O)O)NC1=O)C(=O)N[C@@H](CCCNC(=N)N)C(=O)N[C@@H](Cc1c[nH]c3ccccc13)C(=O)N[C@@H](C1CCCC1)C(=O)N[C@H](C(N)=O)CSCC(=O)N[C@@H](Cc1ccc3ccccc3c1)C(=O)N[C@@H](CCCNC(=N)N)C(=O)N2` [Peptide-128] ({CH2CO}-[2Nal]RCGRDWCRW[Gly(cPent)]C-NH2; disulfide 3-8; thioether N-12): the figures for the amount remaining at 4 h, 20 μM in data set [2], in data set [3] and in data set [4] were 98.1%, 98.6% and 99%, respectively.

With `N=C(N)NCCC[C@@H]1NC(=O)CNC(=O)[C@@H]2CSCSC[C@H](NC(=O)[C@H](Cc3c[nH]c4ccccc34)NC(=O)[C@H](CC(=O)O)NC1=O)C(=O)N[C@@H](CCCNC(=N)N)C(=O)N[C@@H](Cc1c[nH]c3ccccc13)C(=O)N[C@@H](C1CCCC1)C(=O)N[C@H](C(N)=O)CSCC(=O)N[C@@H](Cc1ccc3ccccc3c1)C(=O)N[C@@H](CCCNC(=N)N)C(=O)N2` [Peptide-130] ({CH2CO}-[2Nal]RCGRDWCRW[Gly(cPent)]C-NH2; linker 3-8 via CH2; thioether N-12), the share remaining at 4 h, 20 μM in data set [2] was 98%; in data set [3] it was 93.5%; in data set [4], 88%. Besides, the “serum stability (in words)” value in data set [2] is given as “high serum stability”.

As to `N=C(N)NCCC[C@@H]1NC(=O)CNC(=O)[C@@H]2CSCSCC[C@H](NC(=O)[C@H](Cc3c[nH]c4ccccc34)NC(=O)[C@H](CC(=O)O)NC1=O)C(=O)N[C@@H](CCCNC(=N)N)C(=O)N[C@@H](Cc1c[nH]c3ccccc13)C(=O)N[C@@H](C1CCCC1)C(=O)N[C@H](C(N)=O)CSCC(=O)N[C@@H](Cc1ccc3ccccc3c1)C(=O)N[C@@H](CCCNC(=N)N)C(=O)N2` [Peptide-131] ({CH2CO}-[2Nal]RCGRDW[hCys]RW[Gly(cPent)]C-NH2; linker 3-8 via CH2; thioether N-12), the share remaining at 4 h, 20 μM was found to be 89.2% in data set [2], 89.2% in data set [3] and 101% in data set [4]. Also, the “serum stability (in words)” value in data set [2] is recorded as “high serum stability”.
